Results reported in patent publication US9174977B2, “2-azabicyclo[4.1.0]heptane derivatives as orexin receptor antagonists for the treatment of certain disorders” (Rottapharm Biotech S.r.l., priority 2012, dated 2015).

How the values were obtained:
human OX1 receptors = target: T1, human OX1 receptors (Homo sapiens, UniProt O43613); assay: antagonistic activity against human OX1 receptor, calcium fluorimetry (Fluo-4NW) in transfected CHO cells; assay type: cell-based; conditions: CHO cells transfected with human recombinant OX1, activated with orexin-A 3 nM; pKb = co-logarithm of apparent dissociation constant (modified Cheng Prusoff)
T1 construct: expressed in transfected cells; host or cells: CHO cells
T1 sequence (O43613 1-425): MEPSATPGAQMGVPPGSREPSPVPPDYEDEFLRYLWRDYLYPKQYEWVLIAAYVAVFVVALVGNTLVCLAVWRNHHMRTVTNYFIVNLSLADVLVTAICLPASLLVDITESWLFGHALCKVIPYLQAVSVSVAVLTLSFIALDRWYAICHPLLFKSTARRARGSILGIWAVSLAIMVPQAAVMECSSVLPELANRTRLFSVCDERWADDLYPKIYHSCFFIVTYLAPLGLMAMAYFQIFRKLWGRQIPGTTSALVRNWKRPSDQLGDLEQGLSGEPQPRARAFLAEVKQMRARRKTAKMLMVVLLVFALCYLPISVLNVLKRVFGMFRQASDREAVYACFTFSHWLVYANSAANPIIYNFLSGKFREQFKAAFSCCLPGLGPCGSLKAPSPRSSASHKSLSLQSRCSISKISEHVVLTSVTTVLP
Procedure: (§1) In a typical experiment, the antagonistic activity against human OX1 and OX2 receptors is determined by using CHO e HEK-293 cells transfected with human recombinant OX1 and OX2 receptors respectively, seeded at density of 2 and 3×10^4 cells/well respectively in a 96 fluorimetry well plate. Thus the plate was loaded with the calcium dye (Fluo-4NW/probenecid in HBSS, Hepes 20 mM, pH 7,4; Invitrogen) at 37° C. for 60 min. Afterward the temperature was equilibrated at 22° C. for 15 min and the [Ca2+]i measured directly on the plate by using a fluorescent plate reader (CellLux Perkin Elmer).
(§2) Invention compounds were dissolved in DMSO, diluted in HBSS (DMSO, 0.3% final) and added to the wells. After 5 min CHO cells were activated with orexin-A, 3 nM while HEK-293 cells were activated with orexin-B, 10 nM.
(§3) The compounds, dissolved in DMSO and diluted in the medium (DMSO, 0.3% final), have been analysed in the 1 nM-1 μM concentration range (every concentration in duplicate). The antagonistic activity has been expressed as pKb (co-logarithm of the apparent dissociation constant calculated by using the modified Cheng Prusoff equation).
(§4) The results are expressed as percent of control specific […] response ((measured specific response/control specific agonist response)×100) obtained in the presence of the test compounds.
(§5) The IC50 values (concentration causing a half-maximal inhibition of the control specific agonist response) were determinated by non-linear regression analysis of the concentration curves generated with mean replicate values using hill equation curve fitting. The IC50 values are obtained by the arithmetical mean of at least two experiments.

human OX2 receptors = target: T2, human OX2 receptors (Homo sapiens, UniProt O43614); assay: antagonistic activity against human OX2 receptor, calcium fluorimetry (Fluo-4NW) in transfected HEK-293 cells; assay type: cell-based; conditions: HEK-293 cells transfected with human recombinant OX2, activated with orexin-B 10 nM; pKb = co-logarithm of apparent dissociation constant (modified Cheng Prusoff)
T2 construct: expressed in transfected cells; host or cells: HEK-293 cells
T2 sequence (O43614 1-444): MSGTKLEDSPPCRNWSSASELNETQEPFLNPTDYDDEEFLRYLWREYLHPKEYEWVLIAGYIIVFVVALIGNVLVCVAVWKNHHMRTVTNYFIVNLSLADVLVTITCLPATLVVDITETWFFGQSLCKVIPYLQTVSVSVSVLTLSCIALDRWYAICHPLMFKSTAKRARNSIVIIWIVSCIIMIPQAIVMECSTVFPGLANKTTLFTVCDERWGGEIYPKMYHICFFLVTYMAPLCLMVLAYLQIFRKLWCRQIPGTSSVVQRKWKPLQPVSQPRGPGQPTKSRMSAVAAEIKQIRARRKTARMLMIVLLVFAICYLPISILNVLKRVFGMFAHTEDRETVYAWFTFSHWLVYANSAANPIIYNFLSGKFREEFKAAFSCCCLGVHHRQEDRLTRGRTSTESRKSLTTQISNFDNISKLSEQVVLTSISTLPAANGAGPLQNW
Procedure: as §1, §2, §3, §4, §5

| Structure (SMILES) | Kb (human OX1 receptors) [nM] | Kb (human OX2 receptors) [nM] |
| --- | --- | --- |
| Cc1nc(C(=O)N2[C@H](CNc3ccc(Cl)cn3)CC[C@H]3C[C@H]32)c(-c2ccccc2)s1 [Compound 2b, ((1R,3S,6S)-3-(((5-chloropyridin-2-yl)amino)methyl)-2-azabicyclo[4.1.0]heptan-2-yl)(2-methyl-5-phenylthiazol-4-yl)methanone] | 1.26 | 15.8 |
| O=C(c1cc(Cl)ccc1-c1ncccn1)N1[C@H](COc2ccc(C(F)(F)F)cn2)CC[C@H]2C[C@H]21 [Compound 3d, (5-chloro-2-(pyrimidin-2-yl)phenyl)((1R,3S,6S)-3-(((5-(trifluoromethyl)pyridin-2-yl)oxy)methyl)-2-azabicyclo[4.1.0]heptan-2-yl)methanone] | 1.26 | 20 |
| O=C(c1cc(Cl)ccc1-c1ncccn1)N1[C@H](CNc2cc(C(F)(F)F)ccn2)CC[C@H]2C[C@H]21 [Compound 1a, (5-chloro-2-(pyrimidin-2-yl)phenyl)((1R,3S,6S)-3-(((4-(trifluoromethyl)pyridin-2-yl)amino)methyl)-2-azabicyclo[4.1.0]heptan-2-yl)methanone] | 1.58 | 3.98 |
| Cc1nc(C(=O)N2[C@H](CNc3nccc(C(F)(F)F)n3)CC[C@H]3C[C@H]32)c(-c2ccccc2)s1 [Compound 2c, (2-methyl-5-phenylthiazol-4-yl)((1R,3S,6S)-3-(((4-(trifluoromethyl)pyrimidin-2-yl)amino)methyl)-2-azabicyclo[4.1.0]heptan-2-yl)methanone] | 1.26 | 6.31 |
| Cc1ccc(-c2ncccn2)c(C(=O)N2[C@H](COc3ccc(Cl)cn3)CC[C@H]3C[C@H]32)c1 [Compound 3f, ((1R,3S,6S)-3-(((5-chloropyridin-2-yl)oxy)methyl)-2-azabicyclo[4.1.0]heptan-2-yl)(5-methyl-2-(pyrimidin-2-yl)phenyl)methanone] | 1 | 50.1 |
| Cc1ccc(-c2ncccn2)c(C(=O)N2[C@H](CNc3ccc(C(F)(F)F)cn3)CC[C@H]3C[C@H]32)c1 [Compound 1d, (5-methyl-2-(pyrimidin-2-yl)phenyl)((1R,3S,6S)-3-(((5-(trifluoromethyl)pyridin-2-yl)amino)methyl)-2-azabicyclo[4.1.0]heptan-2-yl)methanone] | 1.26 | 3.98 |
| O=C(c1cc(Cl)ccc1-c1ncccn1)N1[C@H](CNc2ccc(C(F)(F)F)cn2)CC[C@H]2C[C@H]21 [Compound 1e, (5-chloro-2-(pyrimidin-2-yl)phenyl)((1R,3S,6S)-3-(((5-(trifluoromethyl)pyridin-2-yl)amino)methyl)-2-azabicyclo[4.1.0]heptan-2-yl)methanone] | 2.51 | 12.6 |
| Cc1ccc(-c2ncccn2)c(C(=O)N2[C@H](CNc3nccc(C(F)(F)F)n3)CC[C@H]3C[C@H]32)c1 [Compound 1k, (5-methyl-2-(pyrimidin-2-yl)phenyl)((1R,3S,6S)-3-(((4-(trifluoromethyl)pyrimidin-2-yl)amino)methyl)-2-azabicyclo[4.1.0]heptan-2-yl)methanone] | 2.51 | 5.01 |
| O=C(c1cc(Cl)ccc1-c1ncccn1)N1[C@H](COc2ccc(Cl)cn2)CC[C@H]2C[C@H]21 [Compound 3e, (5-chloro-2-(pyrimidin-2-yl)phenyl)((1R,3S,6S)-3-(((5-chloropyridin-2-yl)oxy)methyl)-2-azabicyclo[4.1.0]heptan-2-yl)methanone] | 1 | 15.8 |
| O=C(c1cc(Cl)ccc1-c1ncccn1)N1[C@H](CNc2ccc(Cl)cn2)CC[C@H]2C[C@H]21 [Compound 1f, (5-chloro-2-(pyrimidin-2-yl)phenyl)((1R,3S,6S)-3-(((5-chloropyridin-2-yl)amino)methyl)-2-azabicyclo[4.1.0]heptan-2-yl)methanone] | 0.794 | 15.8 |
| N#Cc1ccc(-c2ncccn2)c(C(=O)N2[C@H](CNc3cc(C(F)(F)F)ccn3)CC[C@H]3C[C@H]32)c1 [Compound 1h, 4-(pyrimidin-2-yl)-3-((1R,3S,6S)-3-(((4-(trifluoromethyl)pyridin-2-yl)amino)methyl)-2-azabicyclo[4.1.0]heptane-2-carbonyl)benzonitrile] | 7.94 | 10 |
